Laboratory results from PubChem BioAssay (NCI).
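Protocol summary: plate cells (96-well), add compound at 5 concentrations, incubate 48 h, interpolate endpoints linearly. TGI marks complete inhibition of growth.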

What was measured:
Assay in all cases: growth of human tumour cells (NCI), 48 h
[1] = test system: EKVX NSCLC
[2] = test system: 786-0 renal
[3] = test system: SK-MEL-5 melanoma
[4] = test system: UACC-62 melanoma
[5] = test system: UO-31 renal
[6] = test system: SK-OV-3 ovarian
[7] = test system: SK-MEL-28 melanoma
[8] = test system: SK-MEL-2 melanoma
[9] = test system: UACC-257 melanoma
[10] = test system: LOX IMVI melanoma
[11] = test system: MALME-3M melanoma
[12] = test system: SNB-19 CNS
[13] = test system: OVCAR-8 ovarian
[14] = test system: NCI-H23 lung
[15] = test system: MCF7 breast
[16] = test system: RPMI-8226 leukemia
[17] = test system: A549 NSCLC
[18] = test system: NCI-H522 lung

Row | SMILES | TGI [1] [µM] | TGI [2] [µM] | TGI [3] [µM] | TGI [4] [µM] | TGI [5] [µM] | TGI [6] [µM] | TGI [7] [µM] | TGI [8] [µM] | TGI [9] [µM] | TGI [10] [µM] | TGI [11] [µM] | TGI [12] [µM] | TGI [13] [µM] | TGI [14] [µM] | TGI [15] [µM] | TGI [16] [µM] | TGI [17] [µM] | TGI [18] [µM]
1 | CC1CCC2C(C(=O)O[C@H]3C4CCO[C@@H](OC5OC(CO)C(O)C(O)C5O)C4[C@@]4(CO)O[C@@H]34)=CO[C@@H](OC3OC(CO)C(O)C(O)C3O)C12 (stereo not given in full) | > 10 | > 10 | > 10 | > 10 | > 10 | > 10 | > 10 | > 10 | > 10 | > 10 | > 10 | > 10 | > 10 | > 10 | > 10 | > 10 | > 10 | 
2 | CCCCCCCCCCCCCCCCCCOCC(CO[P+](=O)O)OCCCCCCCCCCCCCCCCCC (stereo not given) | > 50 | > 50 | > 50 |  |  | > 50 | > 50 | > 50 | > 50 | > 50 |  | > 50 | > 50 |  | > 50 | > 50 | > 50 | > 50
3 | O=C(O)c1ccc(C(c2c(O)c3ccccc3oc2=O)c2c(O)c3ccccc3oc2=O)cc1 |  | > 100 | > 100 | > 100 | > 100 | > 100 | > 100 | > 100 | > 100 | > 100 |  | > 100 | > 100 | > 100 | > 100 | > 100 | > 100 | 
4 | CC(CO)C1=CC(C#CCOCc2ccccc2)N(C(=O)Oc2ccccc2)c2ccccc21 (stereo not given) | 73 | > 100 | 74.5 | 22.9 | > 100 | > 100 | > 100 | > 100 | 88.2 | > 100 |  | > 100 | > 100 | 39.8 |  | > 100 | > 100 | 37.3
5 | CC#C[I+]c1ccccc1 | 36.7 | 28.4 | 48.5 | 57.6 | 97.5 | 99.1 | 50.4 | > 100 | 51.7 | 28.2 | 38.2 | > 100 | 31.2 | 39.7 |  |  | > 100 | 13.1
6 | O=[N+]([O-])c1cc(Cl)cc2cc(Cl)cnc12 | > 100 | > 100 | > 100 | > 100 | > 100 |  | > 100 |  | > 100 | > 100 | > 100 | > 100 | > 100 | > 100 |  | > 100 | > 100 | > 100
7 | O=C(c1cccnc1)N1N=C(c2ccc(Cl)cc2)CC1(O)c1cc(F)c(Cl)cc1Cl (stereo not given) | 76.5 | 53.8 | 24.2 |  | > 100 | > 100 | 91.7 | 75.2 | 63.7 | 31.2 | > 100 | > 100 | > 100 | > 100 |  | 47.6 | > 100 | 92.1
8 | COc1cccc(N2C(=O)CSC2c2cc(OC)c(OC)c(OC)c2)c1 (stereo not given) | > 100 | > 100 | > 100 | > 100 | > 100 | > 100 | > 100 | > 100 | > 100 | > 100 |  | 63 | > 100 | > 100 | > 100 | > 100 | > 100 | 90.4
9 | CCOC(=O)CCC(NC(=O)c1ccc(Nc2nc3ccccc3nc2-c2cccs2)cc1)C(=O)OCC (stereo not given) | > 100 | > 100 | > 100 | > 100 | > 100 | > 100 | > 100 | 94.5 | > 100 | > 100 | > 100 | > 100 | > 100 | > 100 | > 100 | > 100 | > 100 | 
10 | CCOC(=O)[C@@]12CCC(C1=O)[C@](C)(O)C[C@@H]2c1ccccc1 | > 100 | 68.8 | > 100 | > 100 | > 100 | 96.9 | > 100 | > 100 | > 100 | > 100 | > 100 | > 100 | > 100 | > 100 |  |  | > 100 | 52.1
11 | Cc1cccc(-c2cc(=S)c3cc(N4CCCC4)ccc3[nH]2)c1 | > 100 | > 100 | > 100 | > 100 | > 100 | > 100 | > 100 | > 100 | > 100 | > 100 |  | > 100 |  |  | > 100 | > 100 | > 100 | 
12 | O=C(OCC1OC(c2nn[nH]n2)C(OC(=O)c2ccccc2)C1OC(=O)c1ccccc1)c1ccccc1 (stereo not given) | > 100 | > 100 | > 100 | > 100 | > 100 | > 100 |  | > 100 | > 100 | > 100 | > 100 | > 100 | > 100 | > 100 | > 100 | > 100 | > 100 | 
13 | N#CCCN(CCC#N)c1ccc(/C=C2\N=C(c3ccccc3)N(c3ccccn3)C2=O)cc1 | > 100 | > 100 | > 100 | > 100 | > 100 | > 100 | > 100 | > 100 | > 100 | > 100 | > 100 | > 100 | > 100 |  | > 100 | > 100 | > 100 | 
14 | N/N=C1/CCCc2nonc21 | > 100 | > 100 | > 100 | > 100 |  | > 100 | > 100 | > 100 | > 100 | > 100 | > 100 |  | > 100 | > 100 | > 100 | > 100 | > 100 | 
